Assays:
Assay in all cases: KINOMEscan competition binding
Conditions in all cases: compound 10.0 µM
[1] = test system: ABL1 (human), P00519 [F317L]
[2] = target: ABL1 (human) (UniProt P00519)
[3] = test system: ABL1 (human), P00519 [T315I]
[4] = test system: ABL1 (human), P00519 [F317I]
[5] = target: SIK3 (human) (UniProt Q9Y2K2)
[6] = target: IRAK1 (human) (UniProt P51617)
[7] = test system: FLT3 (human), P36888 [R834Q]
[8] = target: ACVR2B (human) (UniProt Q13705)
[9] = target: PKN3 (M.tuberculosis) (UniProt Q6P5Z2)
[10] = target: CDKL5 (human) (UniProt O76039)
[11] = target: PIP4K2C (human) (UniProt Q8TBX8)
Chain of PIP4K2C (human) (Q8TBX8 whole entry, looked up): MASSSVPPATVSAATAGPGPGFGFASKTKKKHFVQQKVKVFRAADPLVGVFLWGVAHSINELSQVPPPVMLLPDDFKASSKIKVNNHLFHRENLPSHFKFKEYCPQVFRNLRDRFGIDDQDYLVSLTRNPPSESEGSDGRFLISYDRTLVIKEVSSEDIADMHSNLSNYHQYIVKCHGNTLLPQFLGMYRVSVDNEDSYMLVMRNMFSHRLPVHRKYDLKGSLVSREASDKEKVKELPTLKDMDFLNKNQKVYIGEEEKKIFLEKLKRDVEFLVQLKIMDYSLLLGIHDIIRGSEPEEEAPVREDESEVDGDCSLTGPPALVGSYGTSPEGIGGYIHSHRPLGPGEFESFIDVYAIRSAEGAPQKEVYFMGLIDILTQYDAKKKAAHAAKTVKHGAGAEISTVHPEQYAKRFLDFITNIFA

[12] = target: YSK4 (human) (UniProt Q56UN5)
[13] = target: PAK3 (human) (UniProt O75914)
[14] = test system: KIT (human), P10721 [L576P]
[15] = target: EIF2AK1 (human) (UniProt Q9BQI3)
Chain of EIF2AK1 (human) (Q9BQI3 whole entry, looked up): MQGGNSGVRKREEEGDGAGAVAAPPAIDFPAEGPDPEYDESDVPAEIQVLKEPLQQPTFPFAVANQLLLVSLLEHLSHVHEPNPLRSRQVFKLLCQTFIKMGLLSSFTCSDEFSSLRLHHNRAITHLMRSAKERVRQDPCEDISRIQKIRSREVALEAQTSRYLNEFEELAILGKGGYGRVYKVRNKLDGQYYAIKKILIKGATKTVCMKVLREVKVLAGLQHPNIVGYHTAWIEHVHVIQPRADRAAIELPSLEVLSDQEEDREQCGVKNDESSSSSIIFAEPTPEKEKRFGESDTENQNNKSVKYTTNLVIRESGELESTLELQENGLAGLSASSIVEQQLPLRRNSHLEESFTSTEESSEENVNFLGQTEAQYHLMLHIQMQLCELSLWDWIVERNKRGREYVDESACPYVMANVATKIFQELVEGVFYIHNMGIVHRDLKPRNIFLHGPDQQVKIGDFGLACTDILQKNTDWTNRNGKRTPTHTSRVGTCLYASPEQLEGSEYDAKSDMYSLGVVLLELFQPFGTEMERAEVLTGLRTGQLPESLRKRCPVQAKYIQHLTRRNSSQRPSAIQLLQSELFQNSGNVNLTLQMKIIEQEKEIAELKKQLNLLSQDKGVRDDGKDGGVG

[16] = target: MAP2K5 (human) (UniProt Q13163)
Chain of MAP2K5 (human) (Q13163 whole entry, looked up): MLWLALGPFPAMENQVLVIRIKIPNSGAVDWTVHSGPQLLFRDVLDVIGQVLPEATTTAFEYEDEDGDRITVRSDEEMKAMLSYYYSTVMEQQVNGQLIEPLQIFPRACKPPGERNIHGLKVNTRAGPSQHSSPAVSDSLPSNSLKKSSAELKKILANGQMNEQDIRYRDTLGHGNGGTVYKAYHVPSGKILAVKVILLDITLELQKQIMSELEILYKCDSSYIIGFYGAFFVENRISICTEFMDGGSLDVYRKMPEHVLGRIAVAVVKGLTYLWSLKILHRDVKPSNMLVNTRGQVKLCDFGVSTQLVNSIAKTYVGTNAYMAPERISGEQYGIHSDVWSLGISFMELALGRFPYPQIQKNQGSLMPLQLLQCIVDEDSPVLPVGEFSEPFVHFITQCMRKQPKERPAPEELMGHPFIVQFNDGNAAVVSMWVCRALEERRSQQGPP

[17] = target: MATK (human) (UniProt P42679)
[18] = target: MAST1 (human) (UniProt Q9Y2H9)
[19] = target: EPHB6 (human) (UniProt O15197)
[20] = test system: MET (human), P08581 [M1250T]
[21] = target: CDK13 (human) (UniProt Q14004)
[22] = target: LRRK2 (human) (UniProt Q5S007)
[23] = target: CDK4 CCND1 (human) (UniProt P11802+P24385)
[24] = target: CSNK1A1 (human) (UniProt P48729)
[25] = target: MAP2K7 (human) (UniProt O14733)
[26] = target: CDK4 CCND3 (human) (UniProt P11802+P30281)
[27] = target: SNRK (human) (UniProt Q9NRH2)
[28] = target: HUNK (human) (UniProt P57058)
[29] = target: NEK11 (human) (UniProt Q8NG66)
[30] = test system: PIK3CA (human), P42336 [C420R]
[31] = target: HIPK4 (human) (UniProt Q8NE63)
[32] = target: CDKL3 (human) (UniProt Q8IVW4)
[33] = target: NEK4 (human) (UniProt P51957)
Chain of NEK4 (human) (P51957 whole entry, looked up): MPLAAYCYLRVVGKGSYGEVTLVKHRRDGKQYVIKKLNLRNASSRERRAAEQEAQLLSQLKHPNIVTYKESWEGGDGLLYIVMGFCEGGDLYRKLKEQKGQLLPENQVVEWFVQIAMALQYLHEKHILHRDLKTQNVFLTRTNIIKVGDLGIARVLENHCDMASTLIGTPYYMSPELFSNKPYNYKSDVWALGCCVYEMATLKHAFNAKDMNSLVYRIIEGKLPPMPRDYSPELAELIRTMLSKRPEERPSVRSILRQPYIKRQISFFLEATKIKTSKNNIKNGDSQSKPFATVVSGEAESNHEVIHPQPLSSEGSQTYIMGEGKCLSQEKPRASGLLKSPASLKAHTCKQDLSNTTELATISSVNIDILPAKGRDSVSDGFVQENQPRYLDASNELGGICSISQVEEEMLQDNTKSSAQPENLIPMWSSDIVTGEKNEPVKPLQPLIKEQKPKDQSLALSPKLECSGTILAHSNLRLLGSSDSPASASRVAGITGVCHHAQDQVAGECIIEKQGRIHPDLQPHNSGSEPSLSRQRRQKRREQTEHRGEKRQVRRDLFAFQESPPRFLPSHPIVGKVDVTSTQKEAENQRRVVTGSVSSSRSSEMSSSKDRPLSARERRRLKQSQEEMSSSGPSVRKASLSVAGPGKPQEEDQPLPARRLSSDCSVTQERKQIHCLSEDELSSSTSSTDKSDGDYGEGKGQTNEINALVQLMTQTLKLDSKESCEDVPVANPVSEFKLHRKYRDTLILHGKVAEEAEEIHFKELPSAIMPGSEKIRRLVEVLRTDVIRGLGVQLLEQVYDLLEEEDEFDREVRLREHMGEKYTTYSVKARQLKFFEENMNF

[34] = test system: PIK3CA (human), P42336 [Q546K]
[35] = target: CRK2 (P.falciparum) (UniProt P61075)
[36] = target: STK39 (human) (UniProt Q9UEW8)
[37] = target: HIPK2 (human) (UniProt Q9H2X6)
Chain of HIPK2 (human) (Q9H2X6 whole entry, looked up): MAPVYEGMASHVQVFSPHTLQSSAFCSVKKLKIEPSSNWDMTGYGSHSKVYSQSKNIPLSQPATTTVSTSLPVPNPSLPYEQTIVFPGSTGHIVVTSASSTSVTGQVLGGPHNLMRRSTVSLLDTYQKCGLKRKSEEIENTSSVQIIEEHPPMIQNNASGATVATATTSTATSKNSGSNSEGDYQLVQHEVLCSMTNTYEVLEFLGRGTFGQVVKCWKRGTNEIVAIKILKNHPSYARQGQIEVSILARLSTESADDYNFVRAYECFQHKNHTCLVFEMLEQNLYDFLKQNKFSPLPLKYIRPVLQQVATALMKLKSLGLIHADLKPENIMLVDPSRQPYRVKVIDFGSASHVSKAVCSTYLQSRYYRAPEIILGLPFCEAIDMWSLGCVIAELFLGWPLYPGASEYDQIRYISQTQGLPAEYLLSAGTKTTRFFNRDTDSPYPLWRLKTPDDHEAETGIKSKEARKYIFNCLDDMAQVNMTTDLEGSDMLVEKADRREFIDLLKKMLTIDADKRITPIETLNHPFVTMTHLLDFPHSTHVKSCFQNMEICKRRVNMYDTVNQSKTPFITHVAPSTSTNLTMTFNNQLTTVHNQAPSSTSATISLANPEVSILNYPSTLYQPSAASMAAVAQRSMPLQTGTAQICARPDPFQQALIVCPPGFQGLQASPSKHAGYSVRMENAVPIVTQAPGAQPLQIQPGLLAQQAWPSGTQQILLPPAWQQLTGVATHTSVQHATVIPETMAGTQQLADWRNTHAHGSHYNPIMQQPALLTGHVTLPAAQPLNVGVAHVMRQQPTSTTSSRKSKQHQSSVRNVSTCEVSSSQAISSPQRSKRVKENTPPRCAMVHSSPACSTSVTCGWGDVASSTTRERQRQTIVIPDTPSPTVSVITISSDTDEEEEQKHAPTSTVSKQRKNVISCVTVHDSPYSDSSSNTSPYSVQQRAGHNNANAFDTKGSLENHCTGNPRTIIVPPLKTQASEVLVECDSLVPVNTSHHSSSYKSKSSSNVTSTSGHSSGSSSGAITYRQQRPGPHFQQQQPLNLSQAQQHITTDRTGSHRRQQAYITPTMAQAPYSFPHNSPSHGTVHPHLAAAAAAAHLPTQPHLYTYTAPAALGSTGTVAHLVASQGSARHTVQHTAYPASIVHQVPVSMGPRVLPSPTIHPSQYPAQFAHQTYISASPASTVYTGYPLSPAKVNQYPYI

[38] = target: PLK2 (human) (UniProt Q9NYY3)
[39] = target: TBK1 (human) (UniProt Q9UHD2)
[40] = target: RPS6KB1 (human) (UniProt P23443)
Chain of RPS6KB1 (human) (P23443 whole entry, looked up): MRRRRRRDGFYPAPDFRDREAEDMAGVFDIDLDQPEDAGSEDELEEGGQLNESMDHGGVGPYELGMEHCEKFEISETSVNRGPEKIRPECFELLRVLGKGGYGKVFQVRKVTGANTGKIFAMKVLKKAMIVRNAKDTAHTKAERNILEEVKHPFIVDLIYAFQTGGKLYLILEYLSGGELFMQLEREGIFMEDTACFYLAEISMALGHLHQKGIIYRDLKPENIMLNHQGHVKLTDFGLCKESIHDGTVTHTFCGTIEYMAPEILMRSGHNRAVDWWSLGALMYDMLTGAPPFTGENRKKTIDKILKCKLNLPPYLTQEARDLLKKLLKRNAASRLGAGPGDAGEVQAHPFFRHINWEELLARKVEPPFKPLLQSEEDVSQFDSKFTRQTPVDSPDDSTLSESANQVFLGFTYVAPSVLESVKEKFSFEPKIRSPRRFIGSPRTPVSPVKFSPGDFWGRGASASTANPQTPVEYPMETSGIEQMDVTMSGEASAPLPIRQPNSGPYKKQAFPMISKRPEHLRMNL

[41] = target: MAP3K13 (human) (UniProt O43283)
Chain of MAP3K13 (human) (O43283 whole entry, looked up): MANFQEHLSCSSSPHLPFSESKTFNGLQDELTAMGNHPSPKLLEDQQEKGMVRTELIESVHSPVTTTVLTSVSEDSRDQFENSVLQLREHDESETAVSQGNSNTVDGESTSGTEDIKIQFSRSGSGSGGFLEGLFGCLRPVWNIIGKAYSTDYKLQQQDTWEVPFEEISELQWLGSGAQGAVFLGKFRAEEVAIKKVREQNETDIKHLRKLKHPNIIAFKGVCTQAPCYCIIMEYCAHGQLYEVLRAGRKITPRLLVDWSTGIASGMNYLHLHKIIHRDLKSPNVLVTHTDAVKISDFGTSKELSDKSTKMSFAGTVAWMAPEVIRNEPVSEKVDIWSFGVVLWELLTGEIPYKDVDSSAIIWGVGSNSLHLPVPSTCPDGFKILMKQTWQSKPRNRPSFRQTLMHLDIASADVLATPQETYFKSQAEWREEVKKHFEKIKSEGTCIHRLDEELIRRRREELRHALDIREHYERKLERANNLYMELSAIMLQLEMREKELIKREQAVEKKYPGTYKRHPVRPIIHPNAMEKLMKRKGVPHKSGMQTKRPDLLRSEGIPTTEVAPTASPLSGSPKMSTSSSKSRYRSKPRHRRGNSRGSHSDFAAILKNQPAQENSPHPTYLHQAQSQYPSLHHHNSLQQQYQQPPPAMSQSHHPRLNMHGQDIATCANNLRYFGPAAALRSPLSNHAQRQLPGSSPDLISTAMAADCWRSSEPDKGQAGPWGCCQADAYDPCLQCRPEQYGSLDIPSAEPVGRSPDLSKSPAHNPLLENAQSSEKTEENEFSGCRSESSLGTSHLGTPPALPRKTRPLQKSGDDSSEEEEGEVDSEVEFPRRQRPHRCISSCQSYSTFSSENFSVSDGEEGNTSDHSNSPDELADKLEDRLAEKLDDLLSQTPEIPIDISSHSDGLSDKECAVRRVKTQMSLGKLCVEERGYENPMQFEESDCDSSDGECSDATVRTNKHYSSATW

[42] = target: MAP3K1 (human) (UniProt Q13233)

## COc1cc(N2CCC(N3CCN(C)CC3)CC2)ccc1Nc1ncc(Cl)c(Nc2ccccc2S(=O)(=O)C(C)C)n1
[1]
  kinase still bound, per cent of control: 0.7%
[2]
  kinase still bound, per cent of control: 7.3%
[3]
  kinase still bound, per cent of control: 0.1%
[4]
  kinase still bound, per cent of control: 0.45%

## CCOc1cc(N2CCC(N3CCCCC3)CC2)ccc1Nc1nc(Nc2ccccc2S(=O)(=O)C(C)C)c2cn[nH]c2n1
[5]
  kinase still bound, per cent of control: 100%
[6]
  kinase still bound, per cent of control: 93%
[7]
  kinase still bound, per cent of control: 100%
[8]
  kinase still bound, per cent of control: 100%
[9]
  kinase still bound, per cent of control: 75%
[10]
  kinase still bound, per cent of control: 100%
[11]
  kinase still bound, per cent of control: 100%
[12]
  kinase still bound, per cent of control: 100%
[13]
  kinase still bound, per cent of control: 59%
[14]
  kinase still bound, per cent of control: 67%
[15]
  kinase still bound, per cent of control: 100%
[16]
  kinase still bound, per cent of control: 55%
[17]
  kinase still bound, per cent of control: 100%
[18]
  kinase still bound, per cent of control: 46%
[19]
  kinase still bound, per cent of control: 71%
[20]
  kinase still bound, per cent of control: 100%
[21]
  kinase still bound, per cent of control: 100%
[22]
  kinase still bound, per cent of control: 0.65%
[23]
  kinase still bound, per cent of control: 82%
[24]
  kinase still bound, per cent of control: 55%
[25]
  kinase still bound, per cent of control: 78%
[26]
  kinase still bound, per cent of control: 100%
[27]
  kinase still bound, per cent of control: 40%
[28]
  kinase still bound, per cent of control: 100%
[29]
  kinase still bound, per cent of control: 100%
[30]
  kinase still bound, per cent of control: 100%
[31]
  kinase still bound, per cent of control: 44%
[32]
  kinase still bound, per cent of control: 100%
[33]
  kinase still bound, per cent of control: 74%
[34]
  kinase still bound, per cent of control: 100%
[35]
  kinase still bound, per cent of control: 100%
[36]
  kinase still bound, per cent of control: 37%
[37]
  kinase still bound, per cent of control: 89%
[38]
  kinase still bound, per cent of control: 100%
[39]
  kinase still bound, per cent of control: 100%
[40]
  kinase still bound, per cent of control: 100%
[41]
  kinase still bound, per cent of control: 100%
[42]
  kinase still bound, per cent of control: 82%

## CCN1CCN(Cc2ccc(NC(=O)c3ccc(C)c(/C=C/c4cnc(Nc5cc(N6CCNCC6)nc(C)n5)cn4)c3)cc2C(F)(F)F)CC1
[5]
  kinase still bound, per cent of control: 100%
[6]
  kinase still bound, per cent of control: 50%
[7]
  kinase still bound, per cent of control: 8.6%
[8]
  kinase still bound, per cent of control: 92%
[9]
  kinase still bound, per cent of control: 100%
[10]
  kinase still bound, per cent of control: 13%
[11]
  kinase still bound, per cent of control: 61%
[12]
  kinase still bound, per cent of control: 0%
[13]
  kinase still bound, per cent of control: 14%
[14]
  kinase still bound, per cent of control: 0.2%
[15]
  kinase still bound, per cent of control: 100%
[16]
  kinase still bound, per cent of control: 0.1%
[17]
  kinase still bound, per cent of control: 100%
[18]
  kinase still bound, per cent of control: 87%
[19]
  kinase still bound, per cent of control: 1.6%
[20]
  kinase still bound, per cent of control: 89%
[21]
  kinase still bound, per cent of control: 46%
[22]
  kinase still bound, per cent of control: 63%
[23]
  kinase still bound, per cent of control: 100%
[24]
  kinase still bound, per cent of control: 14%
[25]
  kinase still bound, per cent of control: 30%
[26]
  kinase still bound, per cent of control: 64%
[27]
  kinase still bound, per cent of control: 84%
[28]
  kinase still bound, per cent of control: 93%
[29]
  kinase still bound, per cent of control: 40%
[30]
  kinase still bound, per cent of control: 80%
[31]
  kinase still bound, per cent of control: 15%
[32]
  kinase still bound, per cent of control: 0.55%
[33]
  kinase still bound, per cent of control: 28%
[34]
  kinase still bound, per cent of control: 100%
[35]
  kinase still bound, per cent of control: 55%
[36]
  kinase still bound, per cent of control: 100%
[37]
  kinase still bound, per cent of control: 49%
[38]
  kinase still bound, per cent of control: 69%
[39]
  kinase still bound, per cent of control: 96%
[40]
  kinase still bound, per cent of control: 6.2%
[41]
  kinase still bound, per cent of control: 6.6%
[42]
  kinase still bound, per cent of control: 75%

## CCN1CCN(Cc2ccc(NC(=O)c3ccc(C)c(Oc4ccnc5[nH]ccc45)c3)cc2C(F)(F)F)CC1
[1]
  kinase still bound, per cent of control: 0.1%
[2]
  kinase still bound, per cent of control: 0.1%
[3]
  kinase still bound, per cent of control: 0%
[4]
  kinase still bound, per cent of control: 0.05%

— the kinase profiling compilation of Christmann-Franck et al. (2016)
